Among the test systems are 786-0 renal; A498 renal; ACHN renal; CAKI-1 renal; CCRF-CEM leukemia; EKVX NSCLC; M14 melanoma; MDA-MB-231 breast; NCI-H23 lung; NCI/ADR-RES ovarian; OVCAR-3 ovarian; PC-3 prostate; SF-268 CNS; SF-295 CNS; SK-MEL-2 melanoma; SK-MEL-5 melanoma; SR leukemia; UACC-62 melanoma; RXF 393 renal; SNB-75 CNS.
Common to all, as to assay: inhibition of tumour cell growth, NCI panel, 48 h

Each structure is given as a SMILES string.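 Test compounds were applied to cells in 96-well plates for 48 hours at 5 doses. TGI marks complete inhibition of growth.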

For `CCCN1C(=O)/C(=C\c2ccc(OC)c(OC)c2)SC1=Nc1ccccc1`, the TGI in the assay with 786-0 renal, in the assay on A498 renal, in the assay on ACHN renal, in the assay with CAKI-1 renal, in the assay on CCRF-CEM leukemia and in the assay with EKVX NSCLC was more than 100 µM in each case. The TGI with M14 melanoma, in the assay on MDA-MB-231 breast, in the assay on NCI-H23 lung, in the assay with NCI/ADR-RES ovarian, in the assay with OVCAR-3 ovarian and in the assay with PC-3 prostate was more than 100 µM throughout. The TGI with SF-268 CNS, with SF-295 CNS, in the assay with SK-MEL-2 melanoma, in the assay on SK-MEL-5 melanoma, in the assay on SR leukemia and in the assay with UACC-62 melanoma was more than 100 µM throughout.

Regarding `NC(=Nc1cccc(Cl)c1)c1ccccc1N`, the TGI with 786-0 renal, in the assay with A498 renal, with ACHN renal, in the assay on CAKI-1 renal, in the assay with EKVX NSCLC and in the assay on M14 melanoma was more than 100 µM each time. Moreover, the TGI in the assay on MDA-MB-231 breast, in the assay on NCI-H23 lung, with NCI/ADR-RES ovarian, in the assay with OVCAR-3 ovarian, in the assay with PC-3 prostate and with RXF 393 renal was more than 100 µM throughout. Further, the TGI in the assay with SF-268 CNS, in the assay with SF-295 CNS, with SK-MEL-5 melanoma, in the assay on SNB-75 CNS, in the assay on SR leukemia and with UACC-62 melanoma was more than 100 µM each time.

With `COC1CCC(=O)N1CN(C(C)=O)c1ccc(C)cc1` (configuration not stated), the TGI in the assay on 786-0 renal, in the assay with ACHN renal, with CAKI-1 renal, with M14 melanoma, in the assay with MDA-MB-231 breast and with NCI-H23 lung was more than 100 µM throughout. Besides, the TGI with NCI/ADR-RES ovarian, in the assay with OVCAR-3 ovarian, in the assay with PC-3 prostate, in the assay on RXF 393 renal, in the assay with SF-268 CNS and with SF-295 CNS was more than 100 µM throughout. The TGI in the assay with SK-MEL-2 melanoma, with SK-MEL-5 melanoma, in the assay on SNB-75 CNS, in the assay with SR leukemia and in the assay on UACC-62 melanoma was more than 100 µM each time.

Regarding `CCC(O)c1ccc(N=Cc2ccccc2O)cc1` (configuration not stated), the TGI in the assay with 786-0 renal, in the assay on A498 renal, in the assay with ACHN renal, in the assay with CAKI-1 renal, in the assay with EKVX NSCLC and in the assay with M14 melanoma was more than 100 µM throughout. In addition, the TGI in the assay with MDA-MB-231 breast, in the assay with NCI-H23 lung, with NCI/ADR-RES ovarian, with OVCAR-3 ovarian, with PC-3 prostate and in the assay on RXF 393 renal was more than 100 µM each time. Further, the TGI with SF-268 CNS, with SF-295 CNS, in the assay with SK-MEL-2 melanoma, in the assay with SK-MEL-5 melanoma, with SNB-75 CNS and in the assay on SR leukemia was more than 100 µM in each case. For the same compound, in the assay with UACC-62 melanoma, the TGI is more than 100 µM.

Regarding `Nc1ccc(-c2nc3ccccc3s2)cc1C#Cc1ccccc1`, the TGI in the assay with 786-0 renal is 32.3 µM; in the assay with A498 renal it was 42.5 µM; with ACHN renal, 38.5 µM; with CAKI-1 renal, 37.2 µM; with CCRF-CEM leukemia it was 93.2 µM; with EKVX NSCLC, 39.8 µM. The TGI in the assay on M14 melanoma was found to be 30.6 µM; in the assay on MDA-MB-231 breast, 47.8 µM; in the assay with NCI-H23 lung it was 52.6 µM; in the assay with NCI/ADR-RES ovarian, 48.6 µM; in the assay with OVCAR-3 ovarian, 33.1 µM; with PC-3 prostate it was 45.4 µM. The TGI is 34.6 µM in the assay on RXF 393 renal; 54.2 µM in the assay on SF-268 CNS; 47.1 µM in the assay with SF-295 CNS; 31.1 µM in the assay with SK-MEL-5 melanoma; 59.7 µM in the assay on SNB-75 CNS; more than 100 µM in the assay on SR leukemia. Moreover, the TGI in the assay on UACC-62 melanoma is 33.9 µM.

For `N#C/C(N)=C(\C#N)N=CNc1ccc(N)cc1`, the TGI in the assay on 786-0 renal, in the assay on A498 renal, in the assay with ACHN renal, in the assay on CAKI-1 renal, with CCRF-CEM leukemia and with EKVX NSCLC was more than 100 µM each time. Also, the TGI in the assay on M14 melanoma, with MDA-MB-231 breast, in the assay with NCI-H23 lung, with NCI/ADR-RES ovarian, with OVCAR-3 ovarian and in the assay with PC-3 prostate was more than 100 µM throughout. For the same compound, the TGI in the assay on SF-268 CNS, in the assay with SF-295 CNS, in the assay on SK-MEL-2 melanoma, in the assay on SK-MEL-5 melanoma, in the assay with SNB-75 CNS and in the assay with SR leukemia was more than 100 µM each time. Also, the TGI in the assay with UACC-62 melanoma was more than 100 µM.

Regarding `C=CCOc1ccccc1C1(O)c2ccccc2C2=NCCCN21` (configuration not stated), the TGI was more than 100 µM in the assay on 786-0 renal; more than 100 µM in the assay on A498 renal; 83.9 µM in the assay on ACHN renal; more than 100 µM in the assay on CAKI-1 renal; more than 100 µM in the assay on CCRF-CEM leukemia; more than 100 µM in the assay on EKVX NSCLC. Further, the TGI is 39.8 µM in the assay with M14 melanoma; more than 100 µM in the assay with MDA-MB-231 breast; more than 100 µM with NCI-H23 lung; more than 100 µM in the assay with NCI/ADR-RES ovarian; 59.7 µM in the assay on OVCAR-3 ovarian; 57.2 µM in the assay on PC-3 prostate. The TGI is more than 100 µM with SF-268 CNS; 71.6 µM with SF-295 CNS; more than 100 µM in the assay with SK-MEL-5 melanoma; more than 100 µM with SNB-75 CNS; more than 100 µM in the assay on SR leukemia; more than 100 µM with UACC-62 melanoma.

Take `COc1ccccc1NCc1cccc2c(=O)c3ccc(Cl)cc3oc12`: the TGI in the assay with 786-0 renal, in the assay on A498 renal, in the assay on ACHN renal, in the assay on CAKI-1 renal, with CCRF-CEM leukemia and in the assay on EKVX NSCLC was more than 100 µM in each case. Moreover, the TGI in the assay on M14 melanoma, in the assay with MDA-MB-231 breast, in the assay with NCI-H23 lung, in the assay with NCI/ADR-RES ovarian, in the assay with OVCAR-3 ovarian and in the assay on PC-3 prostate was more than 100 µM each time. Besides, the TGI in the assay with SF-295 CNS, in the assay with SK-MEL-2 melanoma, in the assay on SK-MEL-5 melanoma, in the assay on SNB-75 CNS, with SR leukemia and in the assay on UACC-62 melanoma was more than 100 µM in each case.

With `CCn1c(=O)c2nc(SC)sc2n(-c2ccccc2)c1=O`, the TGI with 786-0 renal, in the assay on ACHN renal, in the assay with CCRF-CEM leukemia, in the assay on M14 melanoma, in the assay with MDA-MB-231 breast and in the assay with NCI-H23 lung was more than 100 µM in each case. Moreover, the TGI in the assay on NCI/ADR-RES ovarian, in the assay with OVCAR-3 ovarian, in the assay with PC-3 prostate, in the assay with RXF 393 renal, with SF-268 CNS and in the assay with SF-295 CNS was more than 100 µM in each case. In addition, the TGI in the assay on SK-MEL-2 melanoma, in the assay with SK-MEL-5 melanoma, in the assay with SNB-75 CNS and in the assay with SR leukemia was more than 100 µM throughout.

On to `Cc1ccc(O)c(C2=CC(c3cccc(Br)c3)SC(N)=N2)c1` (configuration not stated), for which the TGI with 786-0 renal is 74.4 µM; in the assay with ACHN renal, 52.2 µM; in the assay on CAKI-1 renal, more than 100 µM; in the assay with CCRF-CEM leukemia, 81.7 µM; with EKVX NSCLC, 59.9 µM; with M14 melanoma, 62.9 µM. Also, the TGI was 64 µM in the assay with MDA-MB-231 breast; 76.3 µM with NCI-H23 lung; 71.9 µM with NCI/ADR-RES ovarian; more than 100 µM with OVCAR-3 ovarian; more than 100 µM in the assay on PC-3 prostate; 47.1 µM in the assay with RXF 393 renal. Besides, the TGI worked out at 88.9 µM in the assay on SF-268 CNS; 42.2 µM with SF-295 CNS; 39.4 µM in the assay with SK-MEL-2 melanoma; 32 µM in the assay on SK-MEL-5 melanoma; 61.3 µM in the assay with SNB-75 CNS; 49.7 µM in the assay on SR leukemia. Further, the TGI with UACC-62 melanoma stood at 34.5 µM.

On to `Cc1ccc(S(=O)(=O)N/N=C2/CC3CCC4CC2CC34)cc1` (configuration not stated), for which the TGI in the assay with 786-0 renal, in the assay on A498 renal, with ACHN renal, in the assay on CAKI-1 renal, in the assay on CCRF-CEM leukemia and in the assay on EKVX NSCLC was more than 100 µM throughout. In addition, the TGI with M14 melanoma, in the assay on MDA-MB-231 breast, in the assay on NCI-H23 lung, in the assay on NCI/ADR-RES ovarian, with OVCAR-3 ovarian and in the assay on PC-3 prostate was more than 100 µM each time. The TGI in the assay on SF-268 CNS, with SF-295 CNS, with SK-MEL-2 melanoma, with SK-MEL-5 melanoma, with SNB-75 CNS and in the assay on SR leukemia was more than 100 µM throughout. The compound further displayed a TGI in the assay on UACC-62 melanoma of more than 100 µM.

For the compound `CCOC(=O)CN1CC(C2=C(O)CN(CC(=O)OCC)C2=O)=CC1=O`, the TGI in the assay with 786-0 renal, in the assay with A498 renal, in the assay with ACHN renal, in the assay on CAKI-1 renal, with CCRF-CEM leukemia and in the assay with EKVX NSCLC was more than 100 µM throughout. Moreover, the TGI in the assay on M14 melanoma, in the assay with MDA-MB-231 breast, with NCI-H23 lung, with NCI/ADR-RES ovarian, with OVCAR-3 ovarian and in the assay with PC-3 prostate was more than 100 µM each time. Further, the TGI in the assay on SF-268 CNS, in the assay with SF-295 CNS, in the assay on SK-MEL-2 melanoma, in the assay on SK-MEL-5 melanoma, in the assay on SNB-75 CNS and in the assay with SR leukemia was more than 100 µM each time. In the assay with UACC-62 melanoma, this compound showed a TGI of more than 100 µM.

On to `CC(C)(C)OC(=O)Cn1ncn(NC(=O)Cc2ccccc2)c1=O`, for which the TGI in the assay on 786-0 renal, in the assay on A498 renal, with ACHN renal, with CAKI-1 renal, with CCRF-CEM leukemia and in the assay on EKVX NSCLC was more than 10 µM each time. Moreover, the TGI in the assay on M14 melanoma, with MDA-MB-231 breast, in the assay with NCI-H23 lung, with NCI/ADR-RES ovarian, with OVCAR-3 ovarian and with PC-3 prostate was more than 10 µM throughout. For the same compound, the TGI with SF-268 CNS, with SF-295 CNS, in the assay on SK-MEL-5 melanoma, with SR leukemia and in the assay with UACC-62 melanoma was more than 10 µM in each case.

As for `CC[C@H](C)C1=C(O)[N@+]2([O-])Oc3ccc(-c4c(O)c(O)c(-c5ccc(O)cc5)c(OC(C)=O)c4OC(C)=O)cc3O[C@]2([C@@H](C)CC)C(=O)N1O`, the TGI in the assay on 786-0 renal, in the assay on A498 renal, in the assay with ACHN renal, in the assay with CAKI-1 renal, in the assay on EKVX NSCLC and in the assay with M14 melanoma was more than 50 µM throughout. Besides, the TGI with MDA-MB-231 breast, in the assay with NCI-H23 lung, in the assay with NCI/ADR-RES ovarian, in the assay with OVCAR-3 ovarian, in the assay with PC-3 prostate and in the assay with RXF 393 renal was more than 50 µM in each case. Moreover, the TGI in the assay with SF-268 CNS, with SF-295 CNS, in the assay with SK-MEL-2 melanoma, in the assay on SK-MEL-5 melanoma, in the assay with SR leukemia and in the assay with UACC-62 melanoma was more than 50 µM in each case.

On to `NC1Cc2ccccc2OC1=O` (configuration not stated), for which the TGI with 786-0 renal, in the assay on ACHN renal, in the assay with CAKI-1 renal, in the assay on EKVX NSCLC, in the assay with M14 melanoma and with MDA-MB-231 breast was more than 100 µM each time. The TGI in the assay on NCI-H23 lung, in the assay on NCI/ADR-RES ovarian, with OVCAR-3 ovarian, in the assay with PC-3 prostate, in the assay with RXF 393 renal and with SF-268 CNS was more than 100 µM each time. In addition, the TGI in the assay with SF-295 CNS, in the assay on SK-MEL-2 melanoma, in the assay with SK-MEL-5 melanoma, in the assay with SNB-75 CNS, in the assay with SR leukemia and in the assay with UACC-62 melanoma was more than 100 µM in each case.

These data come from PubChem BioAssay (NCI).
